tested on: MAPK phosphorylation in PANC-1 pancreatic cancer cell line; assay: MAPK cell-based phosphorylation assay (cell-direct ELISA, EGF stimulation); conditions: Homo sapiens
In short: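 Cell-direct ELISA measured phospho-MAPK, with fluorescence read at 595 nm from AmpliFlu Red. Before fixation, PANC-1 cells starved overnight received 6 hours of compound (30 μM single dose or serial dilutions, 0.3% DMSO, 37° C), followed by 1.5 ng/ml EGF for 15 min.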

IC50 | Structure (SMILES)
> 30 µM | O=C(c1csc2c(O)nc(-c3ccccn3)nc12)N1CCOC(c2cccc(F)c2)C1 (stereo not drawn) [drawing 1128]
2 to 10 µM | COc1ccnc(-c2nc(O)c3c(Br)csc3n2)c1 [drawing 1133]
2 to 10 µM | CC(C)(C)c1ccc(-c2csc3c(O)nc(-c4ccccn4)nc23)cc1 [drawing 1191]
> 30 µM | Oc1nc(-c2ccccn2)nc2c(-c3cc(Cl)cc(Cl)c3)csc12 [drawing 1192]
< 2 µM | Oc1nc(-c2ccccn2)nc2c(-c3cccc4c3OCO4)csc12 [drawing 1193]

Structure (SMILES) | IC50
O=C(c1csc2c(O)nc(-c3ccccn3)nc12)N1CCOC(c2nccs2)C1 (stereo not drawn) [drawing 1129] | > 30 µM
CC1CN(c2ccccc2)CCN1C(=O)c1csc2c(O)nc(-c3ccccn3)nc12 (stereo not drawn) [drawing 1143] | > 30 µM
COCc1ccc(-c2csc3c(O)nc(-c4ccccn4)nc23)cc1F [drawing 1190] | 2 to 10 µM

same assay, conditions: Homo sapiens, * = tested at 10 μM

Structure (SMILES) | inhibition at 10 µM
O=C(COCc1ccncc1)Nc1nc(-c2ccccn2)nc2sccc12 [drawing 1185] | 1 to 25%
COc1ccnc(-c2nc(O)c3c(C(F)(F)F)csc3n2)c1 [drawing 1186] | 1 to 25%
Nc1nc(-c2ccccn2)nc2ccsc12 [drawing 1187] | 1 to 25%
O=C(c1cc2nc(-c3ccccn3)nc(O)c2s1)N1CCN(c2ccccc2)CC1 [drawing 1188] | 1 to 25%
Cc1ccc(OC2CCCC2)c(-c2csc3c(O)nc(-c4ccccn4)nc23)c1 [drawing 1189] | 25 to 50%
COCc1ccc(-c2csc3c(O)nc(-c4ccccn4)nc23)cc1F [drawing 1190] | 76 to 100%
CC(C)(C)c1ccc(-c2csc3c(O)nc(-c4ccccn4)nc23)cc1 [drawing 1191] | 76 to 100%
Oc1nc(-c2ccccn2)nc2c(-c3cc(Cl)cc(Cl)c3)csc12 [drawing 1192] | 1 to 25%
Oc1nc(-c2ccccn2)nc2c(-c3cccc4c3OCO4)csc12 [drawing 1193] | 76 to 100%
Oc1nc(-c2ccccn2)nc2sc3c(c12)CCNC3 [drawing 1194] | 25 to 50%
COc1ccc(CCNC(=O)c2csc3nc(-c4ccccn4)nc(N4CCS(=O)(=O)CC4)c23)cn1 [drawing 1195] | 1 to 25%
O=C(NCCc1cnc(O)nc1)c1csc2nc(-c3ccccn3)nc(N3CCS(=O)(=O)CC3)c12 [drawing 1196] | 1 to 25%
N#Cc1ccc2c(c1)CCCC2C(=O)Nc1ccnc(-c2ccccn2)n1 (stereo not drawn) [drawing 1197] | 1 to 25%
Cc1cnc(-c2ccccn2)nc1NC(=O)Cc1ccc2cnccc2c1 [drawing 1198] | 25 to 50%
O=C(COCc1ccnc(O)c1)Nc1nc(-c2ccccn2)nc2sccc12 [drawing 1199] | 1 to 25%
O=C(c1csc2c(O)nc(-c3ccccn3)nc12)N1CCNC(c2cn[nH]c2)C1 (stereo not drawn) [drawing 1200] | 25 to 50%
Nc1nc(-c2ccccn2)nc2c(-c3ccccc3)csc12 [drawing 1201] | 25 to 50%
Oc1nc(-c2ccccn2)nc2c(-c3cc(F)ccc3OC(F)F)csc12 [drawing 1202] | 1 to 25%
Oc1nc(-c2ccccn2)nc2c(-c3ccc(OC4CCCC4)cc3)csc12 [drawing 1203] | 25 to 50%
Oc1nc(-c2ccccn2)nc2c(-c3ccc(C4CCC4)cc3)csc12 [drawing 1204] | 51 to 75%
Oc1nc(-c2ccccn2)nc2c(-c3ccccc3OC3CCCCC3)csc12 [drawing 1205] | 1 to 25%
Oc1nc(-c2ccccn2)nc2c(-c3ccc(OC4CCOCC4)cc3)csc12 [drawing 1206] | 1 to 25%

same assay, conditions: Homo sapiens, at 30 μM

Structure (SMILES) | inhibition at 30 µM
O=C(c1csc2c(O)nc(-c3ccccn3)nc12)N1CCOC(c2cccc(F)c2)C1 (stereo not drawn) [drawing 1128] | 1 to 25%
O=C(c1csc2c(O)nc(-c3ccccn3)nc12)N1CCOC(c2nccs2)C1 (stereo not drawn) [drawing 1129] | 25 to 50%
O=C(c1csc2c(O)nc(-c3ccccn3)nc12)N1CCNC(c2cccc(F)c2)C1 (stereo not drawn) [drawing 1130] | 1 to 25%
COCCCCNC(=O)c1csc2nc(-c3ccccn3)nc(N3CCN(C)CC3)c12 [drawing 1131] | 1 to 25%
FC(F)(F)c1csc2nc(-c3ccccn3)nc(N3CCOCC3)c12 [drawing 1132] | 1 to 25%
COc1ccnc(-c2nc(O)c3c(Br)csc3n2)c1 [drawing 1133] | 76 to 100%
O=C(c1csc2c(O)nc(-c3ccccn3)nc12)N1CCOC(c2ccc(F)cc2)C1 (stereo not drawn) [drawing 1134] | 1 to 25%
CC(C)(C(=O)Nc1ccnc(-c2ccccn2)n1)c1ccc(C#N)cc1 [drawing 1135] | 25 to 50%
CC(C)(C(=O)Nc1nc(-c2ccccn2)nc2sccc12)c1ccc(C#N)cc1 [drawing 1136] | 1 to 25%
O=C(c1csc2c(O)nc(-c3ccccn3)nc12)N1CCN(c2cccc(F)c2)CC1 [drawing 1137] | 1 to 25%
O=C(c1csc2c(O)nc(-c3ccccn3)nc12)N1CCN(c2ccc(F)cc2)CC1 [drawing 1138] | 1 to 25%
N#Cc1cccc(N2CCN(C(=O)c3csc4c(O)nc(-c5ccccn5)nc34)CC2)c1 [drawing 1139] | 1 to 25%
COc1cc(OC)cc(N2CCN(C(=O)c3csc4c(O)nc(-c5ccccn5)nc34)CC2)c1 [drawing 1140] | 1 to 25%
COc1cc(N2CCN(C(=O)c3csc4c(O)nc(-c5ccccn5)nc34)CC2)cc(OC)c1OC [drawing 1141] | 1 to 25%
O=C(c1csc2c(O)nc(-c3ccccn3)nc12)N1CCN(c2ccc(F)cc2F)CC1 [drawing 1142] | 1 to 25%
CC1CN(c2ccccc2)CCN1C(=O)c1csc2c(O)nc(-c3ccccn3)nc12 (stereo not drawn) [drawing 1143] | 51 to 75%
O=C(c1csc2c(O)nc(-c3ccccn3)nc12)N1CCN(Cc2ccccc2)CC1 [drawing 1144] | 1 to 25%
COc1cccc(CN2CCN(C(=O)c3csc4c(O)nc(-c5ccccn5)nc34)CC2)c1 [drawing 1145] | 25 to 50%
O=C(c1csc2c(O)nc(-c3ccccn3)nc12)N1CCN(Cc2ccc(O)cc2)CC1 [drawing 1146] | 25 to 50%

Structure (SMILES) | inhibition at 30 µM
O=C(c1csc2c(O)nc(-c3ccccn3)nc12)N1CCN(Cc2ccc(O)c(Cl)c2)CC1 [drawing 1147] | 25 to 50%
COc1ccccc1C1CN(C(=O)c2csc3c(O)nc(-c4ccccn4)nc23)CCO1 (stereo not drawn) [drawing 1148] | 1 to 25%
O=C(c1csc2c(O)nc(-c3ccccn3)nc12)N1CCOC(c2ccccc2Cl)C1 (stereo not drawn) [drawing 1149] | 1 to 25%
COc1cccc(C2CN(C(=O)c3csc4c(O)nc(-c5ccccn5)nc34)CCN2)c1 (stereo not drawn) [drawing 1150] | 1 to 25%
COc1ccc(C2CN(C(=O)c3csc4c(O)nc(-c5ccccn5)nc34)CCN2)cc1 (stereo not drawn) [drawing 1151] | 25 to 50%
Cc1ccccc1C1CN(C(=O)c2csc3c(O)nc(-c4ccccn4)nc23)CCN1 (stereo not drawn) [drawing 1152] | 1 to 25%
O=C(c1csc2c(O)nc(-c3ccccn3)nc12)N1CCNC(c2ccccc2F)C1 (stereo not drawn) [drawing 1153] | 1 to 25%
O=C(c1csc2c(O)nc(-c3ccccn3)nc12)N1CCNC(Cc2ccccc2)C1 (stereo not drawn) [drawing 1154] | 1 to 25%
COc1cc(CCN(C)C(=O)c2csc3nc(-c4ccccn4)nc(N4CCOCC4)c23)ccn1 [drawing 1155] | 1 to 25%
COCCCCNC(=O)c1csc2nc(-c3ccccn3)nc(N3CCOCC3)c12 [drawing 1156] | 1 to 25%
COCCN(CCOC)c1nc(-c2ccccn2)nc2scc(C(=O)NCCc3ccc(OC)nc3)c12 [drawing 1157] | 1 to 25%
CC(C(=O)Nc1ccnc(-c2ccccn2)n1)c1ccc(C#N)cc1 (stereo not drawn) [drawing 1158] | 1 to 25%
COc1ccc2c(c1)CCC2C(=O)Nc1ccnc(-c2ccccn2)n1 (stereo not drawn) [drawing 1159] | 1 to 25%
Cc1cnc(-c2ccccn2)nc1NC(=O)C(C)c1ccc(C#N)cc1 (stereo not drawn) [drawing 1160] | 1 to 25%
N#Cc1ccc(COCC(=O)Nc2nc(-c3ccccn3)nc3sccc23)cc1 [drawing 1161] | 1 to 25%
COc1ccnc(-c2nc(O)c3c(Cl)csc3n2)c1 [drawing 1162] | 1 to 25%
COc1cnc(CN)[nH]c1=O [drawing 1163] | 1 to 25%
COc1ccc(N2CCN(C(=O)c3csc4c(O)nc(-c5ccccn5)nc34)CC2)cc1O [drawing 1164] | 1 to 25%
O=C(c1csc2c(O)nc(-c3ccccn3)nc12)N1CCN(c2ccc(O)c(Cl)c2)CC1 [drawing 1165] | 1 to 25%

Structure (SMILES) | inhibition at 30 µM
CC(c1ccccc1)N1CCN(C(=O)c2csc3c(O)nc(-c4ccccn4)nc23)CC1 (stereo not drawn) [drawing 1166] | 1 to 25%
O=C(c1csc2c(O)nc(-c3ccccn3)nc12)N1CCNC(c2ccc(F)cc2)C1 (stereo not drawn) [drawing 1167] | 1 to 25%
O=C(NCCc1ccc(O)nc1)c1csc2nc(-c3ccccn3)nc(N3CCOCC3)c12 [drawing 1168] | 1 to 25%
O=C(NCCc1cnc(O)nc1)c1csc2nc(-c3ccccn3)nc(N3CCOCC3)c12 [drawing 1169] | 25 to 50%
CS(=O)(=O)CCCNC(=O)c1csc2nc(-c3ccccn3)nc(N3CCOCC3)c12 [drawing 1170] | 25 to 50%
COCCN(CCOC)c1nc(-c2ccccn2)nc2scc(C(=O)NCCc3cnc(O)nc3)c12 [drawing 1171] | 25 to 50%
COc1cc(COCC(=O)Nc2ccnc(-c3ccccn3)n2)ccn1 [drawing 1172] | 25 to 50%
Cc1cnc(-c2ccccn2)nc1NC(=O)Cc1ccc(C#N)cc1 [drawing 1173] | 51 to 75%
Cc1cnc(-c2ccccn2)nc1NC(=O)COCc1ccc(C#N)cc1 [drawing 1174] | 1 to 25%
Cc1cnc(-c2ccccn2)nc1NC(=O)COCc1ccnc(O)c1 [drawing 1175] | 25 to 50%
N#Cc1ccc(CC(=O)Nc2nc(-c3ccccn3)nc3sccc23)cc1 [drawing 1176] | 76 to 100%
COc1ccc2c(c1)CCC2C(=O)Nc1nc(-c2ccccn2)nc2sccc12 (stereo not drawn) [drawing 1177] | 1 to 25%
N#Cc1csc2nc(-c3ccccn3)nc(N3CCOCC3)c12 [drawing 1178] | 1 to 25%
COc1cc(N2CCN(C(=O)c3csc4c(O)nc(-c5ccccn5)nc34)CC2)ccc1O [drawing 1179] | 25 to 50%
Nc1nc(-c2ccccn2)nc2sccc12 [drawing 1180] | 1 to 25%
Nc1nc(-c2ccccn2)nc2scc(-c3ccccc3)c12 [drawing 1181] | 1 to 25%
COC(=O)c1csc2c(O)nc(-c3ccccn3)nc12 [drawing 1182] | 25 to 50%
COc1cnc(CNC(=O)Cn2cnc3nc(-c4ccccn4)nc(N4CCOCC4)c32)[nH]c1=O [drawing 1183] | 1 to 25%
NC(=O)Cn1cnc2nc(-c3ccccn3)nc(N3CCOCC3)c21 [drawing 1184] | 1 to 25%
